Like-named read-outs stand apart in the source and are kept apart here.
How the values were obtained:
broiler chickens = settings: 1 mg/kg of diet, 0 to 28 days of age, cited from earlier work
young rats = settings: 10 mg L-thyroxine/kg diet; 400 mg magnesium/kg; cited from earlier work
[1] = tested on: Cobb broiler breeder hens and roosters
Description: Molting Cobb Broiler Breeder Hens and Roosters with Dietary Thyroxine.

[2] = tested on: 66-week-old caged laying hens; settings: cited from earlier work
White Leghorn hens = settings: excessive injected levels, e.g. 243 micrograms/100 g body weight; cited from earlier work
laying turkeys = settings: 2 mg L-thyroxine/hen/day i.m.; cited from earlier work

For N[C@@H](Cc1cc(I)c(Oc2cc(I)c(O)c(I)c2)c(I)c1)C(=O)O [L-thyroxine, 3,5,3′,5′-tetraiodo-L-thyronine], the Serum thyroxine level (broiler chickens; first experiment (control 41.1)) is listed as 88.7 ng/mL, the Serum thyroxine level (broiler chickens; second experiment (control 21.1)) is listed as 69.3 ng/mL and the “Weight gain in 16 days” value (young rats) is listed as 60 g. The “Toxicity to broiler breeder males” value ([1]; 25 mg/kg diet or more) was “toxic to broiler breeder males (death)”, the “Testes of broiler breeder males” value ([1]; 25 or 40 mg T4/kg diet) was “testes shown to enlarge” and the “Adverse sign in roosters” value ([1]; 25 or 40 mg/kg diet) was ““stroke blood” from the nostrils”. The “Time on treated feed until hens reduced feed intake, ceased egg production and began to molt feathers” value ([1]; Cobb broiler breeder hens, 25 or 40 ppm) was 15 to 17 days, the “Tolerance of males for thyroxine (T4) alone” value ([1]; excess causes mortality) was < 25 mg/kg diet and the “Days to target body weight (30% loss)” value ([2]; 1-day fast or no fast followed by corn diet with or without thyroxine) was 28 days. For the same compound, the “Days to target body weight (30% loss)” value ([2]; 1-day feed withdrawal, then grape pomace diet plus 10 mg thyroxine/kg) was 16 days, the “Egg production from 66 to 98 weeks” value ([2]; grape pomace diet plus thyroxine) was 64.7% and the Mortality (White Leghorn hens) was 47%. For the same compound, the “Time out of egg production after treatment” value (laying turkeys) was 4 weeks.

Reference: patent US20060008512A1, “Composition and methods for improved animal performance” (priority 2004, published 2006)
